Reference: patent US20230310629A1, “BISPECIFIC ANTIBODY-DRUG CONJUGATES TARGETING EGFR AND MUC1 AND USES THEREOF” (Merck Patent GmbH, priority 2020, published 2023)

Assays:
[1] = test system: NCI-H292 cells; test: cells; format: cell-based; conditions: Homo sapiens
Protocol: (§1) NSCLC cells NCI-H292 (EGFR wild type (wt)), HCC827 (EGFR del E746-A750), and NCI-H1975 (EGFR L858R/T790M) were all purchased from ATCC. NCI-H292 and NCI-H1975 were cultured in RPMI1640 media with stable L-glutamine (Millipore® Sigma), 10% FBS (Millipore® Sigma) and 1 mM sodium pyruvate (Gibco®, Thermo Fisher Scientific®, or Millipore® Sigma). HCC827 cells were cultured in RPMI1640 media with stable 2 mM L-glutamine, 2.5 g/L D-(+)-glucose solution (Millipore® Sigma), 10 mM HEPES (Millipore® Sigma), 10% FBS, and 1 mM sodium pyruvate (Gibco®, Thermo Fisher Scientific®, or Millipore® Sigma).
(§2) For cytotoxicity testing, cell monolayers were washed once with Gibco® D-PBS (Thermo Fisher Scientific®) and detached from the cell culture flask using Accutase® (Millipore® Sigma). Viable cells were counted with the automated cell counter LUNA-FL™ (Logos Biosystems) using 0.4% Gibco® trypan blue solution (Thermo Fisher Scientific®). A total of 625 cells (NCI-H292), 1250 cells (NCI-H1975) or 3000 cells (HCC827) were plated in 90 μl cell culture medium per well of a 96-well black/clear flat bottom TC-treated imaging microplate (Corning®) and cultured overnight. A ten-fold starting concentration of ADCs or compounds and a respective serial dilution (1:4) were prepared in cell culture medium briefly before use. Wells were supplied with 10 μl ADC or compound solution. Treatment was performed in technical triplicates. […] Untreated control cells for ADCs or EGFR tyrosine kinase inhibitors (TKIs) received a corresponding amount of dilution media or dimethylsulfoxide (DMSO; Millipore Sigma), respectively. For subsequent cell viability measurement, 100 μl Cell Titer-Glo® reagent (Promega™ Corp, Madison, WI, USA) was pipetted in each well, and plates were further processed according the manufacturer's instructions.

[2] = test system: NCI-H1975 cells; test: cells; format: cell-based; conditions: Homo sapiens
Protocol: as §1, §2

In the case of C=CC(=O)Nc1cc(Nc2nccc(-c3cn(C)c4ccccc34)n2)c(OC)cc1N(C)CCN(C)C [Molecule 15, osimertinib], the IC50 ([1]; NCI-H292, […], read-out: Geomean IC50) is reported as 570 nM, the Emax ([1]; NCI-H292, read-out: geomean span (% efficacy)) is reported as 100% and the IC50 ([2]; NCI-H1975, […], read-out: Geomean IC50) is reported as […]. The Emax ([2]; NCI-H1975, read-out: geomean span (% efficacy)) was […].
